Experimental data: patent publication US20060168668A1, “Phosphodiesterase 2a and methods of use” (Memory Pharmaceuticals Corporation, priority 2003, published 2006)

Tests used:
Type in all cases: biochemical
recombinant human PDE2A4 [1] = molecular target: T1, recombinant human PDE2A4 (Homo sapiens, UniProt O00408, P38L/T213A/V664A); assay: Inhibition of recombinant human PDE2A4 enzyme activity (QM7 lysate); settings: QM7 lysate containing recombinant human PDE2A4
T1 construct: made in house; host or cells: QM-7 cells (quail myoblast line), transient transfection, crude cell lysate
T1 sequence (O00408 1-932 isoform O00408-4 P29L/T204A/V655A): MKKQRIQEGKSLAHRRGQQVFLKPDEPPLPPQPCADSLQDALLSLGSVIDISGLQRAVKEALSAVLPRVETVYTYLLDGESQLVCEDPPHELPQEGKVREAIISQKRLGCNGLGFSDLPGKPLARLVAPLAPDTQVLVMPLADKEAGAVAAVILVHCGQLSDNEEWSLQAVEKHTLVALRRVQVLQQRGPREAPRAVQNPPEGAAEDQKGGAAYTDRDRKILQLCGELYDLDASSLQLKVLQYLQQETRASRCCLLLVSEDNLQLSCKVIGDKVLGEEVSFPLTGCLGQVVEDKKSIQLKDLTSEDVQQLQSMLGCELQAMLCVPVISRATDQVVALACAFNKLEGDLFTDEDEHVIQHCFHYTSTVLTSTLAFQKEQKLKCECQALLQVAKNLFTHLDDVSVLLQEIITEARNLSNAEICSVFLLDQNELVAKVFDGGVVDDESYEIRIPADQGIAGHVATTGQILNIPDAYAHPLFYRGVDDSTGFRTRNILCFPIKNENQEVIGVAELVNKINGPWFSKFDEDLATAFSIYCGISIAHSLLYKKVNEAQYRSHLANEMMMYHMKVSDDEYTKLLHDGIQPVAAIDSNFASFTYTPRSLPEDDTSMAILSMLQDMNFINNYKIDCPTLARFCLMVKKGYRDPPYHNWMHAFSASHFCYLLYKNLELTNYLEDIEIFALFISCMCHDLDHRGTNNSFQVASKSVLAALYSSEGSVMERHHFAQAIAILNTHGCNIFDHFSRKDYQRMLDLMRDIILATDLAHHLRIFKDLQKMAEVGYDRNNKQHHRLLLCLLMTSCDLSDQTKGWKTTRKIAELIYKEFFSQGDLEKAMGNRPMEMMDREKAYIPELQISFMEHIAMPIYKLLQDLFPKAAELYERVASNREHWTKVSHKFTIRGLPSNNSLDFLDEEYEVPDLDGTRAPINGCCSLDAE
Description: FIG. 3. EHNA inhibition of hsPDE2A4 activity. QM7 lysate containing recombinant human PDE2A4 was used in inhibition assay with increased concentration of inhibitors (EHNA and Rolipram; 10^−9-10^−[…]). The data and graph were analyzed and generated using Prism software.
(§1) To express in active form, human PDE2A4 cDNA was cloned downstream of the CMV promoter into pcDNA3.1/V5-His-TOPO vector, and the plasmid was transiently transfected into QM-7 cells by lipofectamine-plus reagent (Invitrogen). Forty-eight hours after the transfection, the QM-7 cells were lysed in buffer containing 50 mM Tris/HCl, 10 mM NaCl, 5 mM EGTA, 1 mM EDTA, 1 mM DTT and proteinase inhibitor cocktail (Roche). The cell lysate was used as a source for recombinant hsPDE2A4 enzyme.
(§2) The enzyme activity assay was performed according to Thompson et al, Ann N Y Acad Sci, 185:36-41 (1971) and Alvarez et al, Anal Biochem, 203:76-82 (1992) in the presence of 50 mM Tris/HCl, pH 8.0, 5 mM MgCl2, 4 mM 2-mercaptoethanol and 0.3 mg/ml BSA. […] The experiments were performed in duplicates for each substrate concentration. The Km and Vmax were calculated with Michaelis-Menten equation on Prism software.

recombinant human PDE2A4 [2] = molecular target: T1, recombinant human PDE2A4; assay: Enzyme activity assay, Km and Vmax of human PDE2A4 for cAMP and cGMP
Description: as §1, §2

recombinant human PDE2A4 [3] = molecular target: T1, recombinant human PDE2A4; assay: cGMP stimulation of hsPDE2A4 cAMP-hydrolyzing activity; settings: 10 μM cGMP; cAMP substrate 30 μM ([3H]-cAMP/cAMP)
Description: FIG. 4. cGMP stimulation of hsPDE2A4 activity. QM7 lysate containing recombinant human PDE2A4 was used in stimulation assay. […] The enzyme activities in the absence or presence of 10 μM cGMP were compared. Data analysis was performed using Prism software.
as §1, §2
The enzymatic activity of recombinant human PDE2A4 can be stimulated by cGMP, a unique characteristic for PDE2 gene family (FIG. 4).

[4] = substrate of human PDE2A4, QM-7 cell lysate, Michaelis-Menten, Prism

Which IC50 (recombinant human PDE2A4 [1]; inhibitors 10^−9-10^−4 μM, read-out: IC50, inhibition of enzymatic activity of recombinant human PDE2A4) does the source give for CCCCCCC(C(C)O)n1cnc2c(N)ncnc21 (stereo not drawn) [EHNA, erythro-9-(2-hydroxy-3-nonyl)adenine] here?
Its IC50 is 1.1 µM.

With COc1ccc(C2CNC(=O)C2)cc1OC1CCCC1 (stereo not drawn) [Rolipram] as the molecule, how does the “inhibitory effect on human PDE2A4 enzyme activity” value (recombinant human PDE2A4 [1]; inhibitors 10^−9-10^−4 μM (FIG. 3)) read?
The value was “no inhibitory effect”.

For Nc1nc2c(ncn2[C@@H]2O[C@@H]3COP(=O)(O)O[C@H]3[C@H]2O)c(=O)[nH]1 [cGMP, cyclic guanosine 5′ monophosphate], which “affinity of human PDE2A4 for cGMP relative to cAMP” value (recombinant human PDE2A4 [2]; cGMP versus cAMP) is on record?
Its value is about 2 fold.

And the Km (recombinant human PDE2A4 [2]; [4])?
The Km was 17.5 µM.

What about the Vmax (recombinant human PDE2A4 [2]; [4]) of the same molecule?
The Vmax was “Vmax = 334.4 ± 16.0 pmol/mg/min”.

And the “stimulation of activity for hydrolyzing cAMP” value (recombinant human PDE2A4 [3])?
The value was “elevated more than three-fold”.
